# Like-named read-outs stand apart in the source and are kept apart here. Positions of bridges follow the written chain, without caps; N, C: chain ends. Residues, ends and D or L forms follow the SMILES beside them.
# Assays:
# Type in all cases: binding
# FGF-R4 ECD = target: T1, FGF-R4 ECD (Homo sapiens, UniProt P22455); assay: single concentration BLI of crude peptides; conditions: read-out: KD (4)
# T1 construct: DNA constructs for the extracellular domain (ECD) of human FGF-; HPC4 (C); made in house; host or cells: HEK 293-6E
# T1 sequence (P22455 22-369 limits assumed): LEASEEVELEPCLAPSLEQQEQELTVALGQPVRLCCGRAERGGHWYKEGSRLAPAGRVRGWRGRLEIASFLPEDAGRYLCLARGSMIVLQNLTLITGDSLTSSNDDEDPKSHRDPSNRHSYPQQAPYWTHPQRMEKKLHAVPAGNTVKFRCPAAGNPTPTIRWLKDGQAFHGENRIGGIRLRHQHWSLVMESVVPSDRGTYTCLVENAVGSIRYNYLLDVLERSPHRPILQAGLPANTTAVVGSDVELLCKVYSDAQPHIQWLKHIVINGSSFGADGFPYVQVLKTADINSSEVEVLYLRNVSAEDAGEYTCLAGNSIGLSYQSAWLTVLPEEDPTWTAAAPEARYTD
# In short: (§1)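 Biotinylated FGF-R ECD on streptavidin biosensors was dipped into ~1 μM crude peptide in PBS pH7.4 with 0.05% Tween-20 and 0.01% BSA for association, then into buffer for dissociation, and followed by BLI. Fitted KD values were adjusted for peptide concentration measured by UPLC-CAD.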
# FGF-R1C ECD = target: T2, FGF-R1C ECD (Homo sapiens, UniProt P11362); assay: biochemical; set-up: DNA constructs for the extracellular domain (ECD) of human FGF-; HPC4 (C); made in house; host or cells: HEK 293-6E
# T2 sequence (P11362 22-376 limits assumed): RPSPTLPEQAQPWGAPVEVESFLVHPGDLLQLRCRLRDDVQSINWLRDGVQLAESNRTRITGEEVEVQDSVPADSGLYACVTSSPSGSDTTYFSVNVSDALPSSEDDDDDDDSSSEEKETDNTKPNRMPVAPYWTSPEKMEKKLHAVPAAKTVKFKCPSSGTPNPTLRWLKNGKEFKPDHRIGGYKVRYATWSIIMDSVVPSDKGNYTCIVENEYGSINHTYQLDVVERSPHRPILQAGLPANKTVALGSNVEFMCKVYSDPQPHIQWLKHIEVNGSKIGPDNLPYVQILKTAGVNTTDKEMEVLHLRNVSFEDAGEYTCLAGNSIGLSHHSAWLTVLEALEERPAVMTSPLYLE
# In short: as §1
# FGF-R3C ECD = target: T3, FGF-R3C ECD (Homo sapiens, UniProt P22607); assay: biochemical; set-up: DNA constructs for the extracellular domain (ECD) of human FGF-; HPC4 (C); made in house; host or cells: HEK 293-6E
# T3 sequence (P22607 23-375 limits assumed): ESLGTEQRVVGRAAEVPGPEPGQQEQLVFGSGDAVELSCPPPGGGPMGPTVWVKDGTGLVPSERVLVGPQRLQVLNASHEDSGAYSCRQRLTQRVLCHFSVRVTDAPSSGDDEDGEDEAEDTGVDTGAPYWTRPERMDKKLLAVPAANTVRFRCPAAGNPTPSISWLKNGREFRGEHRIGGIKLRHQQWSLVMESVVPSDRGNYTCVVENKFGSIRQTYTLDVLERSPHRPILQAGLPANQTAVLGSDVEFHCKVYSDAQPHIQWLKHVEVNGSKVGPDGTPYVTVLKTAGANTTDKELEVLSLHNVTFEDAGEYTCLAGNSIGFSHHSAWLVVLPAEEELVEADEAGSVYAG
# In short: as §1
# [1] = crude NNK peptides, single concentration BLI (Table S3)
# [2] = crude T18 selection 1 (1:1:1) peptides, single concentration BLI (Table S4)
Compound,Kd (FGF-R4 ECD; [1]) [µM],Kd (FGF-R1C ECD) [µM],Kd (FGF-R3C ECD) [µM],Kd (FGF-R4 ECD; [2]) [µM]
CC[C@H](C)[C@@H]1NC(=O)[C@@H](NC(=O)[C@H](CCSC)NC(C)=O)CSSC[C@@H](C(=O)NCC(=O)N[C@@H](CO)C(=O)NCC(=O)N[C@@H](CO)C(=O)N[C@@H](CC(=O)O)C(=O)N[C@@H](Cc2ccc(O)cc2)C(=O)N[C@@H](CCCCN)C(=O)N[C@@H](CC(=O)O)C(=O)N[C@@H](CC(=O)O)C(=O)N[C@@H](CC(=O)O)C(=O)N[C@@H](CC(=O)O)C(=O)N[C@@H](CCCCN)C(N)=O)NC(=O)[C@H](C(C)C)NC(=O)[C@H](C)NC(=O)[C@H](Cc2c[nH]c3ccccc23)NC(=O)[C@H](Cc2ccccc2)NC(=O)[C@H](CC(=O)O)NC(=O)[C@H](CO)NC(=O)[C@H](CC(C)C)NC(=O)[C@H](CCCNC(=N)N)NC(=O)[C@H](Cc2ccc(O)cc2)NC1=O (Ac-MCIYRLSDFWAVCGSGSDYKDDDDK-NH2; disulfide 2-13),0.133,0.021,0.049,–
CSCC[C@H](NC(C)=O)C(=O)N[C@H]1CSSC[C@@H](C(=O)NCC(=O)N[C@@H](CO)C(=O)NCC(=O)N[C@@H](CO)C(=O)N[C@@H](CC(=O)O)C(=O)N[C@@H](Cc2ccc(O)cc2)C(=O)N[C@@H](CCCCN)C(=O)N[C@@H](CC(=O)O)C(=O)N[C@@H](CC(=O)O)C(=O)N[C@@H](CC(=O)O)C(=O)N[C@@H](CC(=O)O)C(=O)N[C@@H](CCCCN)C(N)=O)NC(=O)[C@H](Cc2c[nH]cn2)NC(=O)[C@H](Cc2c[nH]c3ccccc23)NC(=O)[C@H](Cc2ccc(O)cc2)NC(=O)[C@@H]2CCCN2C(=O)[C@H](CCC(=O)O)NC(=O)[C@H](Cc2ccc(O)cc2)NC(=O)[C@H](CC(C)C)NC(=O)[C@H](Cc2c[nH]cn2)NC(=O)[C@H](CCCNC(=N)N)NC(=O)[C@H](CC(C)C)NC1=O (Ac-MCLRHLYEPYWHCGSGSDYKDDDDK-NH2; disulfide 2-13),–,> 10,> 10,> 10
CSCC[C@H](NC(C)=O)C(=O)N[C@H]1CSSC[C@@H](C(=O)NCC(=O)N[C@@H](CO)C(=O)NCC(=O)N[C@@H](CO)C(=O)N[C@@H](CC(=O)O)C(=O)N[C@@H](Cc2ccc(O)cc2)C(=O)N[C@@H](CCCCN)C(=O)N[C@@H](CC(=O)O)C(=O)N[C@@H](CC(=O)O)C(=O)N[C@@H](CC(=O)O)C(=O)N[C@@H](CC(=O)O)C(=O)N[C@@H](CCCCN)C(N)=O)NC(=O)[C@H](Cc2c[nH]cn2)NC(=O)[C@H](CC(C)C)NC(=O)[C@H](Cc2ccc(O)cc2)NC(=O)[C@H](CC(C)C)NC(=O)[C@H](CCC(=O)O)NC(=O)[C@H](CCC(=O)O)NC(=O)[C@H](Cc2ccccc2)NC(=O)[C@H](CC(C)C)NC(=O)[C@H](Cc2ccccc2)NC(=O)[C@H](CCC(=O)O)NC(=O)[C@H](Cc2ccc(O)cc2)NC(=O)[C@H]([C@@H](C)O)NC1=O (Ac-MCTYEFLFEELYLHCGSGSDYKDDDDK-NH2; disulfide 2-15),–,> 10,> 10,> 10
CSCC[C@H](NC(C)=O)C(=O)N[C@H]1CSSC[C@@H](C(=O)NCC(=O)N[C@@H](CO)C(=O)NCC(=O)N[C@@H](CO)C(=O)N[C@@H](CC(=O)O)C(=O)N[C@@H](Cc2ccc(O)cc2)C(=O)N[C@@H](CCCCN)C(=O)N[C@@H](CC(=O)O)C(=O)N[C@@H](CC(=O)O)C(=O)N[C@@H](CC(=O)O)C(=O)N[C@@H](CC(=O)O)C(=O)N[C@@H](CCCCN)C(N)=O)NC(=O)[C@H](Cc2ccc(O)cc2)NC(=O)[C@H](Cc2ccccc2)NC(=O)[C@H](Cc2c[nH]c3ccccc23)NC(=O)[C@H](CCCCN)NC(=O)[C@H](Cc2ccc(O)cc2)NC(=O)[C@H](Cc2c[nH]c3ccccc23)NC(=O)[C@H](CCC(N)=O)NC(=O)[C@H](CC(C)C)NC(=O)[C@H]([C@@H](C)O)NC(=O)[C@H](C)NC(=O)[C@H](Cc2ccc(O)cc2)NC(=O)[C@H](CCCCN)NC1=O (Ac-MCKYATLQWYKWFYCGSGSDYKDDDDK-NH2; disulfide 2-15),–,0.114,7.34,0.063
CSCC[C@H](NC(C)=O)C(=O)N[C@H]1CSSC[C@@H](C(=O)NCC(=O)N[C@@H](CO)C(=O)NCC(=O)N[C@@H](CO)C(=O)N[C@@H](CC(=O)O)C(=O)N[C@@H](Cc2ccc(O)cc2)C(=O)N[C@@H](CCCCN)C(=O)N[C@@H](CC(=O)O)C(=O)N[C@@H](CC(=O)O)C(=O)N[C@@H](CC(=O)O)C(=O)N[C@@H](CC(=O)O)C(=O)N[C@@H](CCCCN)C(N)=O)NC(=O)[C@H](C)NC(=O)[C@H](CC(C)C)NC(=O)[C@H](CC(C)C)NC(=O)[C@H](C)NC(=O)[C@@H]2CCCN2C(=O)[C@H](Cc2ccccc2)NC(=O)[C@H](Cc2ccccc2)NC(=O)[C@H](CCCNC(=N)N)NC(=O)[C@H](Cc2c[nH]c3ccccc23)NC(=O)[C@H](Cc2ccccc2)NC1=O (Ac-MCFWRFFPALLACGSGSDYKDDDDK-NH2; disulfide 2-13),> 10,> 10,> 10,–
CSCC[C@H](NC(C)=O)C(=O)N[C@H]1CSSC[C@@H](C(=O)NCC(=O)N[C@@H](CO)C(=O)NCC(=O)N[C@@H](CO)C(=O)N[C@@H](CC(=O)O)C(=O)N[C@@H](Cc2ccc(O)cc2)C(=O)N[C@@H](CCCCN)C(=O)N[C@@H](CC(=O)O)C(=O)N[C@@H](CC(=O)O)C(=O)N[C@@H](CC(=O)O)C(=O)N[C@@H](CC(=O)O)C(=O)N[C@@H](CCCCN)C(N)=O)NC(=O)[C@H](C(C)C)NC(=O)[C@H](CCCCN)NC(=O)[C@H](Cc2ccccc2)NC(=O)[C@H](Cc2c[nH]c3ccccc23)NC(=O)[C@H](Cc2ccccc2)NC(=O)[C@H](CCC(=O)O)NC(=O)[C@H](Cc2c[nH]cn2)NC(=O)[C@H](CCC(N)=O)NC(=O)[C@H](CCCCN)NC(=O)[C@H](Cc2ccccc2)NC(=O)[C@H](Cc2c[nH]c3ccccc23)NC(=O)[C@H](Cc2c[nH]c3ccccc23)NC1=O (Ac-MCWWFKQHEFWFKVCGSGSDYKDDDDK-NH2; disulfide 2-15),–,> 10,> 10,0.002
CC[C@H](C)[C@@H]1NC(=O)[C@H](CCCCN)NC(=O)[C@H](Cc2ccc(O)cc2)NC(=O)[C@H](Cc2ccc(O)cc2)NC(=O)[C@H](Cc2c[nH]cn2)NC(=O)[C@H](Cc2c[nH]c3ccccc23)NC(=O)[C@H](CC(C)C)NC(=O)[C@@H](NC(=O)[C@H](CCSC)NC(C)=O)CSSC[C@@H](C(=O)NCC(=O)N[C@@H](CO)C(=O)NCC(=O)N[C@@H](CO)C(=O)N[C@@H](CC(=O)O)C(=O)N[C@@H](Cc2ccc(O)cc2)C(=O)N[C@@H](CCCCN)C(=O)N[C@@H](CC(=O)O)C(=O)N[C@@H](CC(=O)O)C(=O)N[C@@H](CC(=O)O)C(=O)N[C@@H](CC(=O)O)C(=O)N[C@@H](CCCCN)C(N)=O)NC(=O)[C@H](CCCCN)NC(=O)[C@H](CCC(N)=O)NC(=O)[C@H](CCCNC(=N)N)NC(=O)[C@H](CCCNC(=N)N)NC(=O)[C@H](Cc2ccccc2)NC1=O (Ac-MCLWHYYKIFRRQKCGSGSDYKDDDDK-NH2; disulfide 2-15),–,0.096,> 10,0.008
CC[C@H](C)[C@@H]1NC(=O)[C@H](Cc2ccc(O)cc2)NC(=O)[C@H](Cc2c[nH]cn2)NC(=O)[C@@H](NC(=O)[C@H](CCSC)NC(C)=O)CSSC[C@@H](C(=O)NCC(=O)N[C@@H](CO)C(=O)NCC(=O)N[C@@H](CO)C(=O)N[C@@H](CC(=O)O)C(=O)N[C@@H](Cc2ccc(O)cc2)C(=O)N[C@@H](CCCCN)C(=O)N[C@@H](CC(=O)O)C(=O)N[C@@H](CC(=O)O)C(=O)N[C@@H](CC(=O)O)C(=O)N[C@@H](CC(=O)O)C(=O)N[C@@H](CCCCN)C(N)=O)NC(=O)[C@H](CC(C)C)NC(=O)[C@H](Cc2c[nH]c3ccccc23)NC(=O)[C@H](CC(=O)O)NC(=O)[C@H](CO)NC1=O (Ac-MCHYISDWLCGSGSDYKDDDDK-NH2; disulfide 2-10),> 10,> 10,> 10,–

# From paper PMC10763615, “Identification and engineering of potent cyclic peptides with selective or promiscuous binding through biochemical profiling and bioinformatic data analysis” (RSC Chemical Biology, 2023)
